{"source": "ChEMBL document CHEMBL1136726", "about": "“Synthesis and characterization of iodine-123 labeled 2beta-carbomethoxy-3beta-(4'-((Z)-2-iodoethenyl)phenyl)nortropane. A ligand for in vivo imaging of serotonin transporters by single-photon-emission tomography” (J Med Chem, 2003)", "key": {"[1]": {"molecular_target": "Sodium-dependent noradrenaline transporter (Homo sapiens, UniProt P23975)", "sequence (P23975 whole entry)": "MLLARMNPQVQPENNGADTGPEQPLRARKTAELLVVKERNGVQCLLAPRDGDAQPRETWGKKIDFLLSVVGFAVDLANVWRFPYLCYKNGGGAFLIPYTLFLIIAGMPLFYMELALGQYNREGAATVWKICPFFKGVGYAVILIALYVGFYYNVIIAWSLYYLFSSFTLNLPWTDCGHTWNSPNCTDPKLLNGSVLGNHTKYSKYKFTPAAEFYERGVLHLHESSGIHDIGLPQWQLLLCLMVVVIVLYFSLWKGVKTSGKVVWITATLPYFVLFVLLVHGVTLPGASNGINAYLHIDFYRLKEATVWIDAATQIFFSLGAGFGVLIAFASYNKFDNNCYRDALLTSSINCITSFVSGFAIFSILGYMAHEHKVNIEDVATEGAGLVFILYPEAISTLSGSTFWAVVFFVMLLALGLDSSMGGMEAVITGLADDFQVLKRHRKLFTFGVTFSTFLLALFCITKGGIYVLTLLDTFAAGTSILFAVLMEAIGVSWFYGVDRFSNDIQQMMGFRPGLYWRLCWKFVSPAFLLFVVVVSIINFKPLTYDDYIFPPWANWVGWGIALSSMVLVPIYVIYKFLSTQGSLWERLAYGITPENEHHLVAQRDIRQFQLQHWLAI", "test": "In vitro competitive binding versus [3H]- […] in murine kidney cells transfected with cDNA for human norepinephrine transporter (NET)", "assay_type": "cell-based"}, "[2]": {"molecular_target": "T1, Sodium-dependent serotonin transporter (Homo sapiens, UniProt P31645)", "T1 sequence (P31645 whole entry)": "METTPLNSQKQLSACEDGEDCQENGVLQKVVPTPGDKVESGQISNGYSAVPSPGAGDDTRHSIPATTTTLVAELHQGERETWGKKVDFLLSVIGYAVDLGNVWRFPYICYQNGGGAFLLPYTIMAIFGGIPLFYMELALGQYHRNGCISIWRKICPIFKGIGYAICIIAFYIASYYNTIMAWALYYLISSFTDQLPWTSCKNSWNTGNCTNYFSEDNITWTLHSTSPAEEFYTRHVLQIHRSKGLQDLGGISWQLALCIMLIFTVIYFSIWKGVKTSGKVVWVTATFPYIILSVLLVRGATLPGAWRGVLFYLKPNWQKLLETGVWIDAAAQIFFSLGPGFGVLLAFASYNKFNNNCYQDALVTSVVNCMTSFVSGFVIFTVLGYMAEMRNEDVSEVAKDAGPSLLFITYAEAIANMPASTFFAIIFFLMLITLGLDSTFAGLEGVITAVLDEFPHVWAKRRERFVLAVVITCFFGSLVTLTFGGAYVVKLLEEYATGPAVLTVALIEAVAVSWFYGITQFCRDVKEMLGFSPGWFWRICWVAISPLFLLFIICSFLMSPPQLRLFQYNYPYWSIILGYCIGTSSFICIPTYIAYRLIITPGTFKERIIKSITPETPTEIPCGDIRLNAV", "test": "In vitro competitive binding versus [3H]-citalopram in murine kidney cells transfected with cDNA for human serotonin transporter (SERT)", "assay_type": "cell-based"}, "[3]": {"molecular_target": "T2, Sodium-dependent dopamine transporter (Homo sapiens, UniProt Q01959)", "T2 sequence (Q01959 whole entry)": "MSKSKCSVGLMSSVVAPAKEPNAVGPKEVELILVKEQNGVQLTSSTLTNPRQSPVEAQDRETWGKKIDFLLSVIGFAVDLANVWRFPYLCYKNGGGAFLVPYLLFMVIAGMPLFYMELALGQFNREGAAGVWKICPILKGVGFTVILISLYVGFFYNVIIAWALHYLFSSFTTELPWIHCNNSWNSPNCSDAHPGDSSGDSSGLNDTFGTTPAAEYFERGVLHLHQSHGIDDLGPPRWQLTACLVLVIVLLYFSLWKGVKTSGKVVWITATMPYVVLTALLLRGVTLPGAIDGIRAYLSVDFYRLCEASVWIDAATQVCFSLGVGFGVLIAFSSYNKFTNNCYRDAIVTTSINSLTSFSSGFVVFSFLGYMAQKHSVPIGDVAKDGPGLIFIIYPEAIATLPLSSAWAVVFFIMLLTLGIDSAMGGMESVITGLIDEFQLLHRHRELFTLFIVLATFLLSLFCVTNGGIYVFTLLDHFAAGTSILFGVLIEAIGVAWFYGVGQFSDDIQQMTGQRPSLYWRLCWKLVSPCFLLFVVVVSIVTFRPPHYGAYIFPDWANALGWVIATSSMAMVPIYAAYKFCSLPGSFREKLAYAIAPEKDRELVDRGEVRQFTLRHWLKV", "test": "In vitro competitive binding versus [N-methyl-3H]WIN-35428 in murine kidney cells transfected with cDNA for human dopamine transporter (DAT)", "assay_type": "cell-based"}, "[4]": {"molecular_target": "T1, Sodium-dependent serotonin transporter", "test": "Binding affinity towards serotonin transporter (SERT)"}, "[5]": {"molecular_target": "T1, Sodium-dependent serotonin transporter", "test": "In vitro competitive binding versus [3H]citalopram in murine kidney cells transfected with cDNA for human serotonin transporter (SERT)", "assay_type": "cell-based"}, "[6]": {"molecular_target": "T2, Sodium-dependent dopamine transporter", "test": "Binding affinity towards dopamine transporter (DAT) by using [3H]WIN-35428 as radioligand"}, "[7]": {"molecular_target": "T1, Sodium-dependent serotonin transporter", "test": "Binding affinity towards serotonin transporter (SERT) by using [3H]paroxetine as radioligand"}}, "data": [{"compound": "COC(=O)[C@@H]1C2CCC(C[C@@H]1c1ccc(/C=C/I)cc1)N2", "note": "(stereo not given in full)", "values": [{"measurement": "Ki", "setting": "[1]", "value": 32, "unit": "nM"}, {"measurement": "Ki", "setting": "[2]", "value": 1.15, "unit": "nM"}, {"measurement": "Ki", "setting": "[3]", "value": 1.88, "unit": "nM"}]}, {"compound": "COC(=O)[C@@H]1C2CC[C@H](C[C@@H]1c1ccc(I)cc1)N2C", "values": [{"measurement": "IC50", "setting": "[4]", "value": 4.2, "unit": "nM"}, {"measurement": "Ki", "setting": "[1]", "value": 1.4, "unit": "nM"}, {"measurement": "Ki", "setting": "[5]", "value": 0.67, "unit": "nM"}, {"measurement": "Ki", "setting": "[3]", "value": 0.48, "unit": "nM"}]}, {"compound": "C/C=C\\c1ccc([C@H]2CC3CCC([C@H]2C(=O)OC)N3C)cc1", "note": "(stereo not given in full)", "values": [{"measurement": "IC50", "setting": "[6]", "value": 32, "unit": "nM"}, {"measurement": "IC50", "setting": "[7]", "value": 1.15, "unit": "nM"}]}, {"compound": "C=Cc1ccc([C@H]2CC3CCC(N3)[C@H]2C(=O)CC)cc1", "note": "(stereo not given in full)", "values": [{"measurement": "IC50", "setting": "[7]", "value": 0.32, "unit": "nM"}]}, {"compound": "C/C=C/c1ccc([C@H]2CC3CCC([C@H]2C(=O)OC)N3C)cc1", "note": "(stereo not given in full)", "values": [{"measurement": "IC50", "setting": "[6]", "value": 28, "unit": "nM"}, {"measurement": "IC50", "setting": "[7]", "value": 1.3, "unit": "nM"}]}, {"compound": "C=C(C)c1ccc([C@H]2CC3CCC(N3)[C@H]2C(=O)CC)cc1", "note": "(stereo not given in full)", "values": [{"measurement": "IC50", "setting": "[7]", "value": 0.16, "unit": "nM"}]}, {"compound": "COC(=O)[C@@H]1C2CCC(C[C@@H]1c1ccc(I)cc1)N2", "note": "(stereo not given in full)", "values": [{"measurement": "IC50", "setting": "[4]", "value": 0.36, "unit": "nM"}, {"measurement": "Ki", "setting": "[3]", "value": 0.12, "unit": "nM"}]}]}
